According to ChEMBL document CHEMBL1201862, “PubChem BioAssay data set” (2004):
The source made the active and inactive calls.

What was measured:
[1] = target: T1, Methionyl-tRNA synthetase, putative (Trypanosoma brucei brucei, UniProt Q38C91); format: functional, Trypanosoma brucei brucei strain 927/4 GUTat10.1
T1 sequence (Q38C91 whole entry): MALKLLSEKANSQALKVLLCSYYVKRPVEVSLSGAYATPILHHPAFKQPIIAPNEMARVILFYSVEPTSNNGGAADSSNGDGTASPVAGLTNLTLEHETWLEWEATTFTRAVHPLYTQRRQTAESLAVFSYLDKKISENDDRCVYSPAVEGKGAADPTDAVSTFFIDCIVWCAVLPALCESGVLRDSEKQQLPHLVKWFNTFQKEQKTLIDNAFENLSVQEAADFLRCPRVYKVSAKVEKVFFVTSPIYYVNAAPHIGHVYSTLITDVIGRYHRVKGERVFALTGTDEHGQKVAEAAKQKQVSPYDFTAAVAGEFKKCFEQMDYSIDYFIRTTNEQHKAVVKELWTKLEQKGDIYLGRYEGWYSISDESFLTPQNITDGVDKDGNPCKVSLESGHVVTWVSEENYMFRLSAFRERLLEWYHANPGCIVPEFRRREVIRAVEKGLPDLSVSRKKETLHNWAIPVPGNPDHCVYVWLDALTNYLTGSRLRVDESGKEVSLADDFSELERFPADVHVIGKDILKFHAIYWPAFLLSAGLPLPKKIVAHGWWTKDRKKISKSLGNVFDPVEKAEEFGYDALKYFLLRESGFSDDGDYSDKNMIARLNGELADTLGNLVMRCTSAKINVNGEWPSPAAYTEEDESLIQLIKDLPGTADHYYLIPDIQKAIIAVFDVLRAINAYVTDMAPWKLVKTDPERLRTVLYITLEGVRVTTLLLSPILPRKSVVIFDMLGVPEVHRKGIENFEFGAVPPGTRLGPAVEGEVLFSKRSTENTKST

[2] = target: T1, Methionyl-tRNA synthetase, putative; format: functional, Trypanosoma brucei brucei strain 927/4 GUTat10.1; remark: listed apart in the source
[3] = Counterscreen for inhibitors of Trypanosoma brucei methionyl tRNA synthetase (MetRS): Luminescence-based cell-based high throughput dose response assay to identify compounds that are cytotoxic to Jurkat human T lymphocyte cells.; format: functional
[4] = cytotoxicity in HEK293 background cells – cell-based, dry powder, set 2, counter-screen for EBV LMP1 inhibitor project, dose response (AID 624374); format: functional
[5] = target: Fructose-bisphosphate aldolase (Mycobacterium tuberculosis, UniProt P9WQA3); experiment: Fluorescence-based biochemical high throughput dose response assay for inhibitors of the fructose-bisphosphate aldolase (FBA) of M. tuberculosis.; format: functional
Sequence of Fructose-bisphosphate aldolase (P9WQA3 whole entry): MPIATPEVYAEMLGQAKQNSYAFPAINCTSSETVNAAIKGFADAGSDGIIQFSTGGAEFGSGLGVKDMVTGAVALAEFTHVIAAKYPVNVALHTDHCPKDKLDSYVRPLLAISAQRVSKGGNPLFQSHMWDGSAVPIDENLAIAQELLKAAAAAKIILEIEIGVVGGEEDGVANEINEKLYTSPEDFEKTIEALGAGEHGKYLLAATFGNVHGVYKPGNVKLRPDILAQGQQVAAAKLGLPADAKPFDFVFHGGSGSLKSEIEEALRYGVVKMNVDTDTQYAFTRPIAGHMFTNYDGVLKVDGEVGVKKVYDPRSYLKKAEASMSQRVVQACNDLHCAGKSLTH

[6] = viability loss in human Jurkat cells – cell-based, luminescence, cytotoxicity control for P. falciparum gametocyte viability project, dose response (AID 1117277); format: functional;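 further: potency reflects loss of cellular ATP meaning fewer viable cells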
Vero = experiment: viability loss in Vero cells – cell-based, plate reader, cherry-pick samples, cytotoxicity control, dose response (AID 687020); format: functional; conditions: Chlorocebus sabaeus
[7] = viability inhibitors of stage V gametocytes – luminescence, dose response (AID 1117278); format: functional, cell-based;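 further: gametocytes exposed to compound for 24 hours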
Cytochrome P450 3A4 = Cytochrome P450 3A4 (Homo sapiens, UniProt P08684);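 further: CYP3A4 tested as one member of a cytochrome P450 panel screen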
Sequence of Cytochrome P450 3A4 (P08684 whole entry): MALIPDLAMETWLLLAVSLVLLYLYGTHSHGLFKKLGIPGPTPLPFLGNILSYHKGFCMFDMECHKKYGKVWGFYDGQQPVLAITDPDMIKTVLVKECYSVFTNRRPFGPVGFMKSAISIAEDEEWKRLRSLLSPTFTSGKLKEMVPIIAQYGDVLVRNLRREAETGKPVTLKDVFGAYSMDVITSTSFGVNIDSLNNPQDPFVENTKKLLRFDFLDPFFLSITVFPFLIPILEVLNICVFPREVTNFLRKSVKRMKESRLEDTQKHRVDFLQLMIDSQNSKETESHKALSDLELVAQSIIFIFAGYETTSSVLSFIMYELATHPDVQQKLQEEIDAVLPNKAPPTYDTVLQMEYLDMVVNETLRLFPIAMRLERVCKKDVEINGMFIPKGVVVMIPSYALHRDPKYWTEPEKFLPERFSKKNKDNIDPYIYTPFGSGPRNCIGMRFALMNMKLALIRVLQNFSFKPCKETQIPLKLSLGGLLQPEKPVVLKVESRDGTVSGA

[8] = target: Long-chain-fatty-acid--AMP ligase FadD28 (Mycobacterium tuberculosis, UniProt P9WQ59); experiment: Fluorescence polarization aasay to screen for inhibitors that compete for the binding of FadD28 to a bisubstrate Measured in Biochemical System Using Plate Reader - 2147-01_Inhibitor_Dose_CherryPick_Activity.; format: functional, Mycobacterium tuberculosis H37Rv
Sequence of Long-chain-fatty-acid--AMP ligase FadD28 (P9WQ59 whole entry): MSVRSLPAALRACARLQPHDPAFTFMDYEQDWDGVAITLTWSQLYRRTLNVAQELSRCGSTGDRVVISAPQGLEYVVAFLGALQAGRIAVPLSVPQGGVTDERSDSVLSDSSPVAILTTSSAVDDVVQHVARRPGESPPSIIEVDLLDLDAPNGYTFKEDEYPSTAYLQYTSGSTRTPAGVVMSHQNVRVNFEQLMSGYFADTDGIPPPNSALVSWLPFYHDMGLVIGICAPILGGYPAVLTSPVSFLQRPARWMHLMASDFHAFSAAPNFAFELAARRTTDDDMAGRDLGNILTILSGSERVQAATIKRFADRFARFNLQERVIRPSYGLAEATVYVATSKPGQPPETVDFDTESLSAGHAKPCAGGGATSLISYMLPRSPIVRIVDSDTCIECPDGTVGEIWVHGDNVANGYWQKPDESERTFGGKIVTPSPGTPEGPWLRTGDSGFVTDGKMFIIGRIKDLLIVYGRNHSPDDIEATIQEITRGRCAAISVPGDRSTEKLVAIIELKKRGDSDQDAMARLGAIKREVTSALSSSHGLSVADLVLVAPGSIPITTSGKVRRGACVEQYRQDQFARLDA

[9] = target: Heat shock protein HSP 90-alpha (Homo sapiens, UniProt P07900); format: functional, organism-based
[10] = target: Voltage-gated inwardly rectifying potassium channel KCNH2 (Homo sapiens, UniProt Q12809); conditions: Potency;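 further: confirmatory quantitative high-throughput screen measuring inhibition of hERG channel activity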
Sequence of Voltage-gated inwardly rectifying potassium channel KCNH2 (Q12809 whole entry): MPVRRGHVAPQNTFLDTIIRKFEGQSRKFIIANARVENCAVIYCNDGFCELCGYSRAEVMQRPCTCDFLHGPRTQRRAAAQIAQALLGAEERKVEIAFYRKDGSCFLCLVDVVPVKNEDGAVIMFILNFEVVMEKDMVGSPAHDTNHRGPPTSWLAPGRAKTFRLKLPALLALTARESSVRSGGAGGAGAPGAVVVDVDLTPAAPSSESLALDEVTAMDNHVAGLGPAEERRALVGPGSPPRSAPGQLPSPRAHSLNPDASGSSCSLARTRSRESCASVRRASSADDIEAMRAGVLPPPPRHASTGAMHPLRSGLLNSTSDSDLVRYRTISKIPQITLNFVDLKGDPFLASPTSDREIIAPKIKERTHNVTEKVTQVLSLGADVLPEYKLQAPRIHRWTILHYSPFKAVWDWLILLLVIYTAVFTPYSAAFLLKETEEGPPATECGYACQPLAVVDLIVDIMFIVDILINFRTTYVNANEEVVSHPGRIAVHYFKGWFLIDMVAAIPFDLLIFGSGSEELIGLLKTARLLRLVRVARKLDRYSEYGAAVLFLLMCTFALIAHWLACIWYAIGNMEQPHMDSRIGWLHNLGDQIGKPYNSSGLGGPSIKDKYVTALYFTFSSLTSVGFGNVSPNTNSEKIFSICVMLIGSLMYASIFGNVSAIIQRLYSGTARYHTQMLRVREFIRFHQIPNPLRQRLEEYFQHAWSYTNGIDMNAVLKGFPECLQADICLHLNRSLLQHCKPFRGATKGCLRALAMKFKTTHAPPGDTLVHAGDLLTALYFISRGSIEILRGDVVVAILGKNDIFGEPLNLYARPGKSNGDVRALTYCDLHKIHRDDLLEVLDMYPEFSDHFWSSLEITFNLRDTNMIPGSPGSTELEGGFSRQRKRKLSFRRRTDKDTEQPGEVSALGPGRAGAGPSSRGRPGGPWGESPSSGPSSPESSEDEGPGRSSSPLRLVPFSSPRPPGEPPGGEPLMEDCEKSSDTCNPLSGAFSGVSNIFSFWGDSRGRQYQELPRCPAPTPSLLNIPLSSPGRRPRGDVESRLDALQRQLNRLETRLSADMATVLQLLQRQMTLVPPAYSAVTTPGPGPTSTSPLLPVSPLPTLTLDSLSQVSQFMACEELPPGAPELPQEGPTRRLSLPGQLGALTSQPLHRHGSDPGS

Cc1ccc(NC(=O)CN(C)C(=O)Cc2ccc(Cl)cc2Cl)cc1
IC50 [1]: 6.81 µM (active) | IC50 [2]: 16.5 µM (inactive) | IC50 [3]: 83.3 µM (inactive)

C[C@H](NC(=O)C[C@@H]1C=C[C@@H](NC(=O)Cc2ccccn2)[C@@H](CO)O1)c1ccccc1
AbsAC35 [4]: 153.45 µM

CN1C(=O)c2cc(NC(=O)Cc3cccs3)ccc2OC[C@@H]2O[C@H](CC(=O)NCc3ccc(-c4ccccc4)cc3)CC[C@H]21
AbsAC35 [4]: 112.32 µM

O=[N+]([O-])c1ccc(-c2ccc(/C=N/c3cccc4ccccc34)o2)cc1
IC50 [5]: 8.15 µM (active)

COc1ccc(C2=Nn3c(nnc3-c3ccccc3OC)SC2)cc1OCC1CC1
IC50 [6]: 0.35 µM (active) | AC50 (Vero): 29.1 µM (active) | IC50 [7]: > 109 µM (inactive)

CCCCCCCC/C=C\CCCCCCCC(=O)NCCO [OLEOYLETHANOLAMIDE]
AC50 (Cytochrome P450 3A4): 31.6 µM (inconclusive) | AC50 [8]: > 100 µM (inactive) | AC50 [9]: 7.67 µM (active) | AC50 [10]: 35.5 µM (inconclusive)
